Source: US11649215B2, “Compositions and methods for the treatment of oral infectious diseases” (Cellix Bio Private Limited, priority 2016, dated 2023)
Converted amounts (≈) assume the structure as drawn. “Also recorded” adds a separate entry of the source. Where two headings read alike, the source gives them in different places.

Experiments:
[1] = tested on: various oral pathogenic microorganisms; details: cited from earlier work; for antimicrobial activity among the long-chain fatty acids: comparison among long-chain fatty acids
Candida Species = test: MIC against the Candida Species; format: cell-based; details: conversion of 0.45 μmoles/ml, read-out: MIC (corresponding mass concentration)
Text: Linoleic acid is GRAS listed long chain fatty acid. […] The minimum inhibitory concentration for linoleic acid against Porphyromonas gingivalis was 9 to 78 mcg/ml.

MIC (Candida Species)	Compound	antimicrobial activity among the long-chain fatty acids [1]	bactericidal concentration [1]	antimicrobial activity against oral microorganisms ([1]; in vitro, incl. S. mutans, A. actinomycetemcomitans, C. albicans, P. gingivalis, F. nucleatum, S. gordonii)	bactericidal concentration ([1]; n-6 fatty acids GLA)
–	CCCCCC/C=C\CCCCCCCC(=O)O [palmitoleic acid]	greatest antimicrobial activity	–	–	–
0.13 µg/mL (≈ 0.464 µM)	CCCCC/C=C\C/C=C\CCCCCCCC(=O)O [Linoleic acid]	greatest antimicrobial activity	25 µg/mL	–	–
–	CCCCC/C=C\C/C=C\C/C=C\CCCCC(=O)O [GLA, gamma linoleic acid]	greatest antimicrobial activity	–	significant anti-microbial activity; also recorded: antimicrobial activities	25 µg/mL
–	CCCCC/C=C\C/C=C\C/C=C\C/C=C\CCCC(=O)O [arachidonic acid]	greatest antimicrobial activity	–	–	–
–	CCCCCCCCCCCCCCCC(=O)O [palmitic acid]	greatest antimicrobial activity	–	–	–
